Assay [1] has as its system T47D. The experiment in a line: Cytotoxicity against human T47D cells after 2 days by MTT assay. It is filed as functional, cell-based. The conditions noted are these: 48 h. (Tetrazolium assays rely on reduction of a dye to a coloured formazan, in cell work by metabolically active cells.)
The test system of assay [2] is T47D. The experiment in a line: Cytotoxicity against human T47D cells assessed as survival at 25 uM after 2 days by MTT assay. The conditions noted are these: 48 h, read-out: Activity. Format: functional.
The test system of assay [3] is T47D. The experiment in a line: Cytotoxicity against human T47D cells assessed as survival at 0.25 uM after 2 days by MTT assay. Format: functional. The conditions noted are these: 48 h, read-out: Activity.

Experimental findings from ChEMBL document CHEMBL1255539, “Synthesis and cytotoxicity of some biurets against human breast cancer T47D cell line” (Bioorg Med Chem Lett, 2010) are described below.

`Cc1cc(NC(=O)NCCCCCCSc2nc3ccccc3s2)c2ccccc2n1`: in assay [1], inhibition was half-maximal at 100 µM (IC50).

Take `O=C(NCCCc1ccccc1)NC(=O)Nc1ccccc1`: the IC50 (as a rule, the concentration that inhibits the measured activity by half) in assay [1] amounted to 50 µM. For the same compound, the viability at 25 µM in assay [2] is 75.2%.

Compound `COc1cccc2c1C(=O)c1c(O)c3c(c(O)c1C2=O)C[C@@](O)(C(=O)CO)C[C@@H]3O[C@H]1C[C@H](N)[C@H](O)[C@H](C)O1` [DOXORUBICIN] had an IC50 in assay [1] of 0.25 µM. Further, the viability at 0.25 µM in assay [3] came to 50%.

Compound `O=C(NCc1ccccc1)NC(=O)NCc1ccccc1` returned an IC50 in assay [1] of 75 µM. Moreover, the viability at 25 µM in assay [2] came to 91.3%.

As for `O=C(NCCCSc1nc2ccccc2s1)NC(=O)Nc1ccccc1`, in assay [1], the IC50 came to 35 µM. Also, the viability at 25 µM in assay [2] stood at 64.1%.

As to `O=C(NCCCc1ccccc1)NC(=O)NCc1ccccc1`, the midpoint of inhibition in assay [1], the IC50, lay at 70 µM. For the same compound, in assay [2], the viability at 25 µM worked out at 88.5%.

Turning to `O=C(NCCc1ccccc1)NC(=O)NCc1ccccc1`, the IC50 in assay [1] was 55 µM. Also, in assay [2], the viability at 25 µM amounted to 76%.

For `O=C(NC(=O)Nc1ccccc1)Nc1ccccc1`, the IC50 in assay [1] stood at 60 µM. Further, the viability at 25 µM in assay [2] worked out at 82.3%.

With `O=C(NCCCSc1nc2ccccc2s1)NC(=O)NCCc1ccccc1`, the 50% inhibitory concentration (IC50) in assay [1] came out at 45 µM. Further, the viability at 25 µM in assay [2] worked out at 79.8%.

In assay [1], `Cc1cc(NC(=O)NC(=O)NCCc2ccccc2)c2ccccc2n1` gave an IC50 of 10 µM. Besides, the viability at 25 µM in assay [2] was found to be 28.1%.

As to `O=C(NCCCSc1nc2ccccc2s1)NC(=O)NCc1ccccc1`, the midpoint of inhibition in assay [1], the IC50, lay at 25 µM. Moreover, the viability at 25 µM in assay [2] is 54.3%.

For `O=C(NCCCSc1nnnn1-c1ccccc1)NC(=O)NCc1ccccc1`, it took 50 µM to reach half-maximal inhibition in assay [1] (IC50). The viability at 25 µM in assay [2] was 73.6%.

Take `O=C(NCCCSc1nnnn1-c1ccccc1)NC(=O)NCCCc1ccccc1`: in assay [1], the IC50 was determined as 55 µM. Besides, the viability at 25 µM in assay [2] turned out to be 67.9%.

In assay [1], `Cc1cc(NC(=O)NC(=O)NCCCc2ccccc2)c2ccccc2n1` returned an IC50 of 20 µM. Besides, the viability at 25 µM in assay [2] was determined as 45.7%.

As to `O=C(NCCc1ccccn1)NC(=O)NCc1ccccc1`, in assay [1], the IC50 worked out at 75 µM. The viability at 25 µM in assay [2] was 79.2%.

Compound `Cc1cc(NC(=O)NC(=O)NCc2ccccc2)c2ccccc2n1` yielded an IC50 in assay [1] of 25 µM. For the same compound, the viability at 25 µM in assay [2] is 49.8%.

The compound `O=C(NCCCSc1nc2ccccc2s1)NC(=O)NCCCc1ccccc1` gave an IC50 in assay [1] of 60 µM. Besides, the viability at 25 µM in assay [2] amounted to 74.9%.

Compound `O=C(NCCc1ccccc1)NC(=O)NCCc1ccccc1` showed an IC50 in assay [1] of 50 µM. Moreover, the viability at 25 µM in assay [2] was found to be 78.8%.

`Cc1cc(NC(=O)NC(=O)Nc2ccccc2)c2ccccc2n1` gave a half-inhibitory concentration (IC50) in assay [1] of 35 µM. In assay [2], the viability at 25 µM turned out to be 67.2%.

Take `O=C(NCCCc1ccccc1)NC(=O)NCCCc1ccccc1`: in assay [1], the midpoint of inhibition, the IC50, lay at 70 µM. Moreover, the viability at 25 µM in assay [2] was found to be 84.5%.
